Patent US20060276464A1, “Diarylsulfone sulfonamides and use thereof” (Wyeth, priority 2005, published 2006)
Where two headings read alike, the source gives them in different places.

Target: T1, SFRP-1 (Homo sapiens, UniProt Q8N474)
T1 sequence (Q8N474 32-314): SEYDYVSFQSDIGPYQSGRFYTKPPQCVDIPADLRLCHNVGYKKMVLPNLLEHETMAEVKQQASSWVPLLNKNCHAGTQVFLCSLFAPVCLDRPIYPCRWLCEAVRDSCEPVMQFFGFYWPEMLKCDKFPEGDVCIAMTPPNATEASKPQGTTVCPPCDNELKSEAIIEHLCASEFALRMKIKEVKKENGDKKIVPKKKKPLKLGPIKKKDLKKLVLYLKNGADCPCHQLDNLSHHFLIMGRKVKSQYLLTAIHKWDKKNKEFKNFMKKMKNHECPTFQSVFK
Test: Cell-based assay for in vitro measurement of SFRP-1/SARP2 antagonist activity (U2OS cells co-transfected with 16x TCF-tk-Luciferase reporter, Wnt and hSFRP-1);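 note: U2OS cells co-transfected with a TCF-tk luciferase reporter, a Wnt vector, hSFRP-1 or empty vector and CMV-βgal, luciferase luminescence read in cell lysates alongside βgal activity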
Conditions: for fold induction at 15 µM / fold induction at 30 µM / fold induction at 10 µM / fold induction at 60 µM: U2OS; for fold induction at 10 µM: read-out: Fold Induction with SFRP-1, U2OS cells, single dose 10 μM, luciferase reporter, fold induction over SFRP-1 control

[1] = read-out: Fold Induction with SFRP-1, Conc 15 μM, with SFRP-1, fold induction over SFRP-1 control, single dose
[2] = read-out: Fold Induction without SFRP-1, Conc 15 μM, without SFRP-1, single dose
[3] = read-out: Fold Induction with SFRP-1, Conc 30 μM, with SFRP-1, fold induction over SFRP-1 control, single dose
[4] = read-out: Fold Induction without SFRP-1, Conc 30 μM, without SFRP-1, single dose
[5] = read-out: Fold Induction with SFRP-1, Conc 15 μM, single dose, luciferase reporter, fold induction over SFRP-1 control, cells with SFRP-1
[6] = read-out: Fold Induction without SFRP-1, Conc 15 μM, single dose, luciferase reporter, cells without SFRP-1 (specificity control)

| SMILES | fold induction at 15 µM [1] | fold induction at 15 µM [2] | other results |
| --- | --- | --- | --- |
| Cc1ccc(S(=O)(=O)c2ccccc2)cc1S(=O)(=O)NCCC1CCOCC1 [Example 299, 2-methyl-5-(phenylsulfonyl)-N-(2-tetrahydro-2H-pyran-4-ylethyl)benzenesulfonamide] | 3.1 | 1.1 |  |
| Cc1ccc(S(=O)(=O)c2ccccc2)cc1S(=O)(=O)NCCc1ccccc1F [Example 53, N-[2-(2-fluorophenyl)ethyl]-2-methyl-5-(phenylsulfonyl)benzenesulfonamide] |  |  | Fold Induction with SFRP-1 (Conc 30 μM, with SFRP-1, fold induction over SFRP-1 control, single dose): 1.2 fold; Fold Induction without SFRP-1 (Conc 30 μM, without SFRP-1, single dose): 0.6 fold; fold induction at 30 µM [3]: 1; fold induction at 30 µM [4]: 0.4 |
| COc1cccc(CCNS(=O)(=O)c2cc(S(=O)(=O)c3ccccc3)ccc2OC)c1 [Example 152, 2-methoxy-N-[2-(3-methoxyphenyl)ethyl]-5-(phenylsulfonyl)benzenesulfonamide] | 1.6 | 1.1 |  |
| Cc1ccc(S(=O)(=O)c2ccc(Cl)cc2Cl)cc1S(=O)(=O)NCCCn1ccnc1 [Example 379, 5-[(2,4-dichlorophenyl)sulfonyl]-N-[3-(1H-imidazol-1-yl)propyl]-2-methylbenzenesulfonamide] | 1.8 | 0.9 |  |
| C[C@H](NS(=O)(=O)c1cc(S(=O)(=O)c2ccccc2)ccc1C(F)(F)F)[C@H](O)c1ccccc1 [Example 685, N-[(1S,2R)-2-hydroxy-1-methyl-2-phenylethyl]-5-(phenylsulfonyl)-2-(trifluoromethyl)benzenesulfonamide] |  |  | fold induction at 10 µM: 1.5 |
| Cc1ccc(S(=O)(=O)c2ccccc2)cc1S(=O)(=O)NCCC(=O)N1CCCC1 [Example 665, 2-methyl-N-(3-oxo-3-pyrrolidin-1-ylpropyl)-5-(phenylsulfonyl)benzenesulfonamide] |  |  | fold induction at 10 µM: 1.3 |
| Cc1ccc(S(=O)(=O)c2ccc(F)cc2)cc1S(=O)(=O)NCCCN(C)C [Example 174, N-[3-(dimethylamino)propyl]-5-[(4-fluorophenyl)sulfonyl]-2-methylbenzenesulfonamide] | 2.8 | 1.2 |  |
| Cc1ccc(S(=O)(=O)c2ccc(C(C)(O)C3CCCCC3)cc2)cc1S(=O)(=O)NCCc1ccccn1 (stereo not shown) [Example 406, 5-{[4-(1-cyclohexyl-1-hydroxyethyl)phenyl]sulfonyl}-2-methyl-N-(2-pyridin-2-ylethyl)benzenesulfonamid] |  |  | fold induction at 60 µM (read-out: Fold Induction with SFRP-1, Conc 60 μM, with SFRP-1, fold induction over SFRP-1 control, single dose): 1.2; fold induction at 60 µM (read-out: Fold Induction without SFRP-1, Conc 60 μM, without SFRP-1, single dose): 0.9 |
| CN1CCN(CCCNS(=O)(=O)c2cccc(S(=O)(=O)c3ccccc3)c2)CC1 [Example 201, N-[3-(4-methylpiperazin-1-yl)propyl]-3-(phenylsulfonyl)benzenesulfonamide] |  |  | fold induction at 30 µM [3]: 1.1; fold induction at 30 µM [4]: 1.2 |
| CC(C)(C)OC(=O)NC1CCN(S(=O)(=O)c2cc(S(=O)(=O)c3ccccc3)ccc2Cl)CC1 [Example 639, tert-butyl(1-{[2-chloro-5-(phenylsulfonyl)phenyl]sulfonyl}piperidin-4-yl)carbamate] |  |  | fold induction at 15 µM [5]: 0.9; fold induction at 15 µM [6]: 1 |
| Cc1ccc(S(=O)(=O)c2ccccc2)cc1S(=O)(=O)NCCc1c[nH]cn1 [Example 210, N-[2-(1H-imidazol-4-yl)ethyl]-2-methyl-5-(phenylsulfonyl)benzenesulfonamide] | 2.5 | 1 |  |
| CC(=O)NCCNS(=O)(=O)c1cccc(S(=O)(=O)c2ccccc2)c1 [Example 190, N-[2-({[3-(phenylsulfonyl)phenyl]sulfonyl}amino)ethyl]acetamide] |  |  | fold induction at 30 µM [3]: 1.2; fold induction at 30 µM [4]: 1 |
| CC(C)c1ccc(S(=O)(=O)c2ccc(F)cc2)cc1S(=O)(=O)NC1CCN(C(=S)Nc2ccc(C(F)(F)F)cc2)CC1 [Example 730, 4-[({5-[(4-fluorophenyl)sulfonyl]-2-isopropylphenyl}sulfonyl)amino]-N-[4-(trifluoromethyl)phenyl]piperidine-1-carbothioamide] |  |  | fold induction at 10 µM: 2.2 |
| Cc1ccc(S(=O)(=O)c2ccc(Cl)cc2)cc1S(=O)(=O)NCCN1CCOCC1 [Example 290, 5-[(4-chlorophenyl)sulfonyl]-2-methyl-N-(2-morpholin-4-ylethyl)benzenesulfonamide] | 1.9 | 0.8 |  |
| CN(CCc1ccccn1)S(=O)(=O)c1cc(S(=O)(=O)c2ccccc2)ccc1Cl [Example 646, 2-chloro-N-methyl-5-(phenylsulfonyl)-N-(2-pyridin-2-ylethyl)benzenesulfonamide] |  |  | fold induction at 15 µM [5]: 1; fold induction at 15 µM [6]: 1.1 |
| CCc1ccc(S(=O)(=O)c2ccccc2)cc1S(=O)(=O)NC1Cc2ccccc2C1 [Example 266, N-2,3-dihydro-1H-inden-2-yl-2-ethyl-5-(phenylsulfonyl)benzenesulfonamide] | 2.7 | 1.2 |  |

| SMILES | fold induction at 15 µM [1] | fold induction at 15 µM [2] | other results |
| --- | --- | --- | --- |
| CCCNS(=O)(=O)c1cc(S(=O)(=O)c2ccccc2)ccc1C [Example 394, 2-methyl-5-(phenylsulfonyl)-N-propylbenzenesulfonamide] | 1.5 | 1 |  |
| Cc1c(S(=O)(=O)NCCc2ccccn2)cccc1S(=O)(=O)c1ccccc1 [Example 494, 2-methyl-3-(phenylsulfonyl)-N-(2-pyridin-2-ylethyl)benzenesulfonamide] |  |  | fold induction at 15 µM [5]: 1; fold induction at 15 µM [6]: 1.1 |
| CC(CO)NS(=O)(=O)c1cc(S(=O)(=O)c2ccccc2)ccc1Cl (stereo not shown) [Example 674, 2-chloro-N-(2-hydroxy-1-methylethyl)-5-(phenylsulfonyl)benzenesulfonamide] |  |  | EC50: 24.1 µM; fold induction at 10 µM: 2 |
| CCCc1ccc(S(=O)(=O)c2ccccc2)cc1S(N)(=O)=O [Example 557, 5-(Phenylsulfonyl)-2-propylbenzenesulfonamide] |  |  | fold induction at 15 µM [5]: 1.4; fold induction at 15 µM [6]: 1.2 |
| CCc1ccc(S(=O)(=O)c2ccccc2)cc1S(=O)(=O)NCCC1CCOCC1 [Example 301, 2-ethyl-5-(phenylsulfonyl)-N-(2-tetrahydro-2H-pyran-4-ylethyl)benzenesulfonamide] | 3.3 | 1.2 |  |
| CCc1ccc(S(=O)(=O)c2ccccc2)cc1S(=O)(=O)NC1CCOCC1 [Example 300, 2-ethyl-5-(phenylsulfonyl)-N-tetrahydro-2H-pyran-4-ylbenzenesulfonamide] | 3.4 | 1.2 |  |
| NC(=O)CCNS(=O)(=O)c1cccc(S(=O)(=O)c2ccccc2)c1 [Example 181, N^3-{[3-(phenylsulfonyl)phenyl]sulfonyl}-beta-alaninamide] |  |  | fold induction at 30 µM [3]: 0.6; fold induction at 30 µM [4]: 1 |
| O=S(=O)(NCCc1ccccn1)c1cc(S(=O)(=O)c2ccc(F)cc2)ccc1C1CCCCC1 [Example 460, 2-cyclohexyl-5-[(4-fluorophenyl)sulfonyl]-N-(2-pyridin-2-ylethyl)benzenesulfonamide] | 1.1 | 1 |  |
| CCc1ccc(S(=O)(=O)c2ccccc2)cc1S(=O)(=O)NCCC(=O)OC [Example 222, methyl N-{[2-ethyl-5-(phenylsulfonyl)phenyl]sulfonyl}-beta-alaninate] | 2.4 | 0.9 |  |
| CC(C)(C)OC(=O)NC1CCN(S(=O)(=O)c2cc(S(=O)(=O)c3ccccc3)ccc2Cl)C1 (stereo not shown) [Example 638, tert-butyl(1-{[2-chloro-5-(phenylsulfonyl)phenyl]sulfonyl}pyrrolidin-3-yl)carbamate] |  |  | fold induction at 15 µM [5]: 1.2; fold induction at 15 µM [6]: 1.1 |
| COc1ccc(S(=O)(=O)c2ccccc2)cc1S(=O)(=O)NC[C@H](C)c1ccccc1 [Example 271, 2-methoxy-N-[(2R)-2-phenylpropyl]-5-(phenylsulfonyl)benzenesulfonamide] | 1.7 | 1.2 |  |
| Cc1ccc(S(=O)(=O)c2ccc(F)cc2)cc1S(=O)(=O)NC1CCOCC1 [Example 308, 5-[(4-fluorophenyl)sulfonyl]-2-methyl-N-tetrahydro-2H-pyran-4-ylbenzenesulfonamide] | 2.3 | 0.9 |  |
| Cc1ccc(S(=O)(=O)c2ccc(F)cc2)cc1S(=O)(=O)NCCC(N)=O [Example 159, N^3-({5-[(4-fluorophenyl)sulfonyl]-2-methylphenyl}sulfonyl)-beta-alaninamide] | 1.8 | 0.9 |  |
| CCN(CC)CCNS(=O)(=O)c1cc(S(=O)(=O)c2ccc(F)cc2)ccc1C [Example 171, N-[2-(diethylamino)ethyl]-5-[(4-fluorophenyl)sulfonyl]-2-methylbenzenesulfonamide] | 2.2 | 1.2 |  |
| Cc1ccc(S(=O)(=O)c2ccccc2)cc1S(=O)(=O)NCCc1ccc2c(c1)OCO2 [Example 43, N-[2-(1,3-benzodioxol-5-yl)ethyl]-2-methyl-5-(phenylsulfonyl)benzenesulfonamide] |  |  | fold induction at 30 µM [3]: 3.6; fold induction at 30 µM [4]: 1 |
